Our source for the Ki and Selectivity values is ChEMBL document CHEMBL1142746, “Triaryl bis-sulfones as cannabinoid-2 receptor ligands: SAR studies” (Bioorg Med Chem Lett, 2005).

For experiment [1], the target named is Cannabinoid receptor 2 (Homo sapiens, UniProt P34972). Put plainly: Inhibition constant against Cannabinoid receptor 2.
In experiment [2] the target is Cannabinoid receptor (Homo sapiens) (UniProt P34972+P21554). Put plainly: Ratio of inhibition against Cannabinoid receptor 1 and Cannabinoid receptor 2. The experiment is classed as protein assay.
Cannabinoid receptor (Homo sapiens), sequence (P21554 whole entry, looked up): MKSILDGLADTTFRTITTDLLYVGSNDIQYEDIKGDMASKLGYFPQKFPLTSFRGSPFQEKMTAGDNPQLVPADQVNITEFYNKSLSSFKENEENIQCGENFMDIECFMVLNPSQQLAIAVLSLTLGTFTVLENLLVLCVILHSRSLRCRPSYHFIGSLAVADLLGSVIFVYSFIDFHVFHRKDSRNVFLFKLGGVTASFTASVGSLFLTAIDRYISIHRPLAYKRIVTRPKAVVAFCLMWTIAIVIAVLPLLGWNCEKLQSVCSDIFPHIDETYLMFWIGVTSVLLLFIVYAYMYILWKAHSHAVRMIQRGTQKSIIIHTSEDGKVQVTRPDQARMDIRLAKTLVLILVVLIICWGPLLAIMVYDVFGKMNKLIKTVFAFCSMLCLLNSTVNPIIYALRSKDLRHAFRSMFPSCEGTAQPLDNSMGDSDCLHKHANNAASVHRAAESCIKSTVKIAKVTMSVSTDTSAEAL
Cannabinoid receptor (Homo sapiens), sequence (P34972 whole entry, looked up): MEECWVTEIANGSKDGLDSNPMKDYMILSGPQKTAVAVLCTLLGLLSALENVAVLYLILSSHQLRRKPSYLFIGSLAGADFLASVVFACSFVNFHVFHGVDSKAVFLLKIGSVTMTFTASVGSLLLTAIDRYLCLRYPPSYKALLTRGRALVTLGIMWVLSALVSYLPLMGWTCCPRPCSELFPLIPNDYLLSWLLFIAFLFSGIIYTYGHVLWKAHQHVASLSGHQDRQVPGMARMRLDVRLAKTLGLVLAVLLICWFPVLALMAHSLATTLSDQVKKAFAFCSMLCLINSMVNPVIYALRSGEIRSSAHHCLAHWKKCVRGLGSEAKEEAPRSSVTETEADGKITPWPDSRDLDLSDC

Cannabinoid receptor 2, sequence (P34972 whole entry): as the sequence (P34972 whole entry, looked up) above

`COc1ccc(S(=O)(=O)c2cc(OC)ccc2S(=O)(=O)c2ccc([C@H](C)NS(C)(=O)=O)cc2)cc1`: the affinity in experiment [1] corresponds to a Ki of 0.4 nM. Further, the Selectivity in experiment [2] is 2260.

Regarding `C[C@H](NS(C)(=O)=O)c1ccc(S(=O)(=O)c2ccc(Cl)cc2S(=O)(=O)c2ccccc2Cl)cc1`, the Ki (usually a measure of affinity in units of concentration, obtained from inhibition or displacement) in experiment [1] was 6 nM. In experiment [2], the Selectivity was found to be 1780.

On to `C[C@H](NS(C)(=O)=O)c1ccc(Cc2ccc(C(F)(F)F)cc2S(=O)(=O)c2c(F)cccc2F)cc1`, for which the affinity in experiment [1], expressed as Ki, was 1.8 nM. In addition, the Selectivity in experiment [2] was 584.

With `COc1ccc(S(=O)(=O)c2cc(OC)ccc2Cc2ccc([C@H](C)NS(C)(=O)=O)cc2)cc1`, the Ki in experiment [1] was 0.6 nM. The Selectivity in experiment [2] turned out to be 1300.

In turn, `C=C(c1ccccc1F)c1cc(Cl)ccc1S(=O)(=O)c1ccc([C@H](C)NS(C)(=O)=O)cc1` displayed a Ki in experiment [1] of 247 nM. Moreover, in experiment [2], the Selectivity is 17.

`CO/N=C(\c1ccc([C@H](C)NS(C)(=O)=O)cc1)c1ccc(Cl)cc1S(=O)(=O)c1ccc(Cl)cc1` registered a Ki in experiment [1] of 406 nM. The Selectivity in experiment [2] turned out to be 5.

Consider `C[C@H](NS(C)(=O)=O)c1ccc(S(=O)(=O)c2ccccc2S(=O)(=O)c2ccccc2F)cc1`, for which affinity in experiment [1] was put at a Ki of 9 nM. Further, in experiment [2], the Selectivity came to 1450.

Regarding `C[C@H](NS(C)(=O)=O)c1ccc(Cc2ccc(OC(F)(F)F)cc2S(=O)(=O)c2ccccc2F)cc1`, the Ki in experiment [1] came out at 0.4 nM. For the same compound, in experiment [2], the Selectivity was determined as 1180.

Consider `C[C@H](NS(C)(=O)=O)c1ccc(Cc2ccc(Cl)cc2S(=O)(=O)c2ccc(Cl)cc2)cc1`, for which, in experiment [1], the Ki came to 6.7 nM. Moreover, the Selectivity in experiment [2] came out at 188.

Regarding `C[C@H](NS(C)(=O)=O)c1ccc(S(=O)(=O)c2ccc(Cl)cc2S(=O)(=O)c2cccc(Cl)c2)cc1`, in experiment [1], the affinity corresponds to a Ki of 23 nM. Moreover, the Selectivity in experiment [2] stood at 238.

In the case of `C[C@H](NS(C)(=O)=O)c1ccc(S(=O)(=O)c2ccc(Cl)cc2Oc2ccc(Cl)cc2)cc1`, the Ki in experiment [1] was found to be 983 nM. Moreover, the Selectivity in experiment [2] was found to be 3.

For the compound `COc1ccc(S(=O)(=O)c2ccc([C@H](C)NS(C)(=O)=O)cc2)c(S(=O)(=O)c2ccc(Cl)cc2)c1`, in experiment [1], the Ki is 0.9 nM. Also, the Selectivity in experiment [2] was 1150.

In the case of `C[C@H](NS(C)(=O)=O)c1ccc(S(=O)(=O)c2ccc(Cl)cc2S(=O)(=O)c2ccccc2OC(F)(F)F)cc1`, affinity in experiment [1] was put at a Ki of 128 nM. Moreover, the Selectivity in experiment [2] amounted to 134.

In turn, `CCC(c1ccc([C@H](C)NS(C)(=O)=O)cc1)c1ccc(Cl)cc1S(=O)(=O)c1ccc(Cl)cc1` (stereo not given in full) yielded a Ki in experiment [1] of 76 nM. In addition, the Selectivity in experiment [2] came out at 48.

In the case of `C[C@H](NS(C)(=O)=O)c1ccc(Cc2ccc(OC(F)(F)F)cc2S(=O)(=O)c2ccccc2OC(F)(F)F)cc1`, in experiment [1], the Ki was 16 nM. In addition, in experiment [2], the Selectivity worked out at 60.

As to `COc1ccc(S(=O)(=O)c2cc(OC)ccc2S(=O)(=O)c2ccc([C@@H](C)NS(C)(=O)=O)cc2)cc1`, the affinity in experiment [1], expressed as Ki, was 30 nM. Besides, the Selectivity in experiment [2] amounted to 105.

`C[C@H](NS(C)(=O)=O)c1ccc(S(=O)(=O)c2ccc(Cl)cc2Nc2ccc(Cl)cc2)cc1` had a Ki in experiment [1] of 278 nM. Further, in experiment [2], the Selectivity is 5.

`C[C@H](NS(C)(=O)=O)c1ccc(Cc2ccc(C(F)(F)F)cc2S(=O)(=O)c2ccccc2F)cc1`: the Ki in experiment [1] worked out at 1 nM. Also, in experiment [2], the Selectivity was 674.

Turning to `COc1ccc(S(=O)(=O)c2ccc([C@H](C)NS(C)(=O)=O)cc2)c(S(=O)(=O)c2ccccc2)c1`, the inhibition constant Ki in experiment [1] was found to be 0.6 nM. Moreover, in experiment [2], the Selectivity was found to be 2480.

`COc1ccc(S(=O)(=O)c2cc(OC)ccc2S(=O)(=O)c2ccc(CNS(C)(=O)=O)cc2)cc1` registered a Ki in experiment [1] of 1.3 nM. In addition, the Selectivity in experiment [2] was 2170.

On to `C[C@H](NS(C)(=O)=O)c1ccc(S(=O)(=O)c2ccc(OC3CCCC3)cc2S(=O)(=O)c2ccc(Cl)cc2)cc1`, for which, in experiment [1], the inhibition constant (Ki) is 232 nM. Besides, in experiment [2], the Selectivity was 11.

The compound `COc1ccc(S(=O)(=O)c2cc(OC)ccc2C(=O)c2ccc([C@H](C)NS(C)(=O)=O)cc2)cc1` showed an inhibition constant (Ki) in experiment [1] of 44 nM. In experiment [2], the Selectivity was 108.

For the compound `COc1ccc(S(=O)(=O)c2cc(OC)ccc2S(=O)(=O)c2ccc(C(C)(C)NS(C)(=O)=O)cc2)cc1`, the Ki in experiment [1] was 6 nM. The Selectivity in experiment [2] was determined as 282.

As to `C[C@H](NS(C)(=O)=O)c1ccc(Cc2ccc(C(F)(F)F)cc2S(=O)(=O)c2cccc(F)c2)cc1`, the affinity in experiment [1], expressed as Ki, was 3.5 nM. The Selectivity in experiment [2] came out at 438.

The compound `C[C@H](NS(C)(=O)=O)c1ccc(S(=O)(=O)c2ccc(Cl)cc2C(C)(O)c2ccc(Cl)cc2)cc1` (stereo not given in full) showed an inhibitory constant (Ki) in experiment [1] of 230 nM. Moreover, in experiment [2], the Selectivity was found to be 25.

`CC(NS(C)(=O)=O)c1ccc(C(=O)c2ccc(OC(F)(F)F)cc2S(=O)(=O)c2ccccc2F)cc1` (stereo not given): in experiment [1], the Ki was 179 nM. In addition, in experiment [2], the Selectivity was 28.

In experiment [1], `C[C@H](NS(C)(=O)=O)c1ccc(S(=O)(=O)c2ccc(Cl)cc2S(=O)(=O)c2ccccc2)cc1` returned a Ki of 2 nM. Besides, in experiment [2], the Selectivity was 1940.

The compound `C[C@H](NS(C)(=O)=O)c1ccc(Cc2ccc(OC(F)(F)F)cc2S(=O)(=O)c2cccc(C(F)(F)F)c2)cc1` yielded an inhibition constant (Ki) in experiment [1] of 35 nM. The Selectivity in experiment [2] worked out at 27.

In experiment [1], `C[C@H](NS(C)(=O)=O)c1ccc(S(=O)(=O)c2ccccc2S(=O)(=O)c2ccc(Cl)cc2)cc1` yielded a Ki of 58 nM. Further, the Selectivity in experiment [2] was determined as 127.

Turning to `C[C@H](NS(C)(=O)=O)c1ccc(S(=O)(=O)c2ccc(Cl)cc2S(=O)(=O)c2ccc(Cl)cc2)cc1`, the affinity in experiment [1] corresponds to a Ki of 10 nM. In addition, the Selectivity in experiment [2] was found to be 687.

As for `Cc1ccc(S(=O)(=O)c2ccc([C@H](C)NS(C)(=O)=O)cc2)c(S(=O)(=O)c2ccccc2F)c1`, the affinity in experiment [1], expressed as Ki, was 0.5 nM. Further, in experiment [2], the Selectivity is 1740.

In experiment [1], `C[C@H](NS(C)(=O)=O)c1ccc(S(=O)(=O)c2ccc(Cl)cc2Cc2ccc(Cl)cc2)cc1` displayed an inhibitory constant (Ki) of 164 nM. The Selectivity in experiment [2] came to 11.

As to `C[C@H](NS(C)(=O)=O)c1ccc(S(=O)(=O)c2ccc(C(F)(F)F)cc2S(=O)(=O)c2ccccc2F)cc1`, the affinity in experiment [1] corresponds to a Ki of 0.9 nM. Further, the Selectivity in experiment [2] turned out to be 3550.

In experiment [1], `C[C@H](NS(C)(=O)=O)c1ccc(S(=O)(=O)c2ccc(Cl)cc2C(=O)c2ccc(Cl)cc2)cc1` yielded a Ki of 192 nM. For the same compound, the Selectivity in experiment [2] was determined as 284.

Compound `C[C@H](NS(C)(=O)=O)c1ccc(S(=O)(=O)c2ccc(O)cc2S(=O)(=O)c2ccc(Cl)cc2)cc1` returned an inhibitory constant (Ki) in experiment [1] of 13 nM. In addition, the Selectivity in experiment [2] stood at 2320.

On to `C[C@H](NS(C)(=O)=O)c1ccc(S(=O)(=O)c2ccc(Cl)cc2S(=O)(=O)c2ccccc2F)cc1`, for which, in experiment [1], the Ki came to 1 nM. Also, the Selectivity in experiment [2] is 4390.

`C[C@H](NS(C)(=O)=O)c1ccc(S(=O)(=O)c2ccc(Cl)cc2C(C)(O)c2ccccc2F)cc1` (stereo not given in full): the Ki in experiment [1] was determined as 77 nM. Moreover, the Selectivity in experiment [2] worked out at 111.

In turn, `CC(NS(C)(=O)=O)c1ccc(C(=O)c2ccc(Cl)cc2S(=O)(=O)c2ccc(Cl)cc2)cc1` (stereo not given) returned a Ki in experiment [1] of 410 nM. Moreover, the Selectivity in experiment [2] came out at 16.

Compound `C[C@H](NS(C)(=O)=O)c1ccc(S(=O)(=O)c2ccc(C(F)(F)F)cc2S(=O)(=O)c2ccc(Cl)cc2)cc1` registered an inhibitory constant (Ki) in experiment [1] of 8 nM. For the same compound, the Selectivity in experiment [2] was 558.

On to `C=C(c1ccc([C@H](C)NS(C)(=O)=O)cc1)c1ccc(OC(F)(F)F)cc1S(=O)(=O)c1ccccc1F`, for which the Ki in experiment [1] came to 86 nM. The Selectivity in experiment [2] is 19.
